# Values joined by “and” are separate entries in the source; they are usually repeats but may differ in a detail not shown here. Identical values can stand only once. Counter-ions that a name gives are not always drawn.
# How the values were obtained:
# Type in all cases: biochemical
# [1] = molecular target: T1, Aβ(1-40) (Homo sapiens, UniProt P05067); test: BASSR (Beta-Amyloid Self-Seeding Radioassay), inhibitors of self-seeded amyloid fibril growth
# T1 construct: […]; purchased Bachem, Torrance, Calif
# T1 sequence (P05067 672-711 limits assumed): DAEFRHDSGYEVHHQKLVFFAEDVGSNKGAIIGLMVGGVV
# Protocol: BASSR (Beta-Amyloid Self-Seeding Radioassay)
# (§1) An assay for inhibitors of self-seeded amyloid fibril growth
# Assay Buffer—50 mM sodium phosphate, pH 7.5, 100 mM NaCl, 0.02% NaN3, 1 M urea (filter and store at 4° C.).
# (§2) Typically, the solution should be stored until no lag phase is seen in the assay.
# ^125I-labeled Aβ(1-40)—150K-350K cpm/μL in 100% acetonitrile—0.1% trifluoroacetic acid (TFA)—1% β-mercaptoethanol (aliquots stored at −20° C.). ^125I-labeled Aβ(1-40) can be made in accordance with the procedure set forth by H. LeVine, III in Neurobiol. Aging, 16, 755, (1995), which is hereby incorporated by reference, or this reagent may be purchased from Amersham, Arlington Heights, Ill.
# The following are the amounts of the components of the reaction mixture sufficient for 50 assay wells:
# • 1) Prepare reaction mixture above by mixing components and storing on ice. • 2) Pipet 14.5 μL of reaction mixture into each of 50 wells on a polypropylene U-bottom 96-well microtiter plate on ice. (Costar 3794). • 3) Add 1.7 μL of diluted compound to be tested to each well in a column of eight, including solvent control. Serial 3-fold dilutions from 1 mM (100 μM final) in assay buffer−urea=7 dilutions+zero. Each 96-well plate can therefore accommodate 11 samples+1 Congo Red control (0.039-5 μM final in 2-fold steps). • 4) Seal the plate with aluminum film (Beckman 538619) and incubate for 10 minutes on ice. • 5) Raise the temperature to 37° C. and incubate for 3 to 5 hours (depending on the lot of the peptide). • 6) Remove the aluminum film and add 200 μL/well of ice cold assay buffer with urea, collecting the radiolabeled fibrils by vacuum filtration through 0.2 μm pore size GVWP filters in 96-well plates (Millipore MAGV N22, Bedford, Mass.). Determine the radioactivity of the filters using standard methods well-known to those skilled in the art. BASST (Beta-Amyloid Self-Seeding, Thioflavin T)
# [2] = molecular target: T2, Aβ (1-42) (Homo sapiens, UniProt P05067); test: BATYM assay (Aβ (1-42) aggregation, Thioflavin T fluorescence); settings: Aβ 1-42 final concentration 100 μM, 37° C., 1 day, letter = synthetic lot
# T2 construct: Required Aβ (1-42) (California Peptide) was dried from its hexafluoroisopropanol (HFIP) stock solution; purchased California Peptide
# T2 sequence (P05067 672-713 limits assumed): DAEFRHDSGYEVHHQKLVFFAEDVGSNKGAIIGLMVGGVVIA
# Protocol: Required Aβ (1-42) (California Peptide) was dried from its hexafluoroisopropanol (HFIP) stock solution. The Aβ (1-42) was dissolved in dimethylsulfoxide (DMSO) and then mixed with phosphate buffered saline (PBS) (pH 7.4). The mixed Aβ (1-42) solution was filtered with a 0.2 μm Omnipore membrane syringe filter Millipore, Bedford, Mass.). The compound to be tested in DMSO (50 times concentrate) was put into each well (0.5 μL/well) of a 96-well plate. The Aβ (1-42) solution was added into each well (24.5 μL/well). The plate was centrifuged at 1,000 g for 5 minutes and incubated at 37° C. for 1 day (Aβ 1-42; final concentration 100 μM).
# After incubation Thioflavin T (ThT) (30 μM) solution in glycine-NaOH buffer (pH 8.5, 50 mM) was added into each well (250 μL/well), fluorescence was measured (ex=440/20 nm, em=485/20 nm) using a fluorescence plate reader. The inhibitory activity was calculated as the reduction of fluorescence with the following formula: Inhibition (%)={(F(Aβ)−F(Aβ+compound)}/{F(Aβ)−[…]}×100
# The IC50s were calculated by a curve fitting program using the following equation. The data were obtained from two different experiments in triplicate.
# x=Concentration of tested compound (M),
# [3] = molecular target: T3, Aβ (1-40) peptide (Homo sapiens, UniProt P05067); test: BAPA (Beta-Amyloid Peptide Aggregation, pH 6.0, filtration); settings: Aβ (1-40) 33 μM, pH 6.0, 2 to 4 hours at room temperature; replicate values; letter = synthetic lot
# T3 construct: 10 μL 0.5 mg/mL Aβ (1-40) peptide in 20% HFIP
# T3 sequence (P05067 672-711 limits assumed): as the sequence (P05067 672-711 limits assumed) above
# Protocol: Each 96-well plate can therefore accommodate 11 samples+1 Congo Red control (0.039-5 μM final in 2-fold steps). • 4) Seal the plate with aluminum film and incubate for 10 minutes on ice. • 5) Raise the temperature to 37° C. and incubate for 3 to 5 hours (depends on the lot of the peptide). • 6) Remove the aluminum film and add 250 μL/well of 5 μM thioflavin T (ThT) [T-3516, Sigma-Aldrich] in 50 mM glycine-NaOH, pH 8.5. […] The purpose of this assays is to provide a higher volume method of assaying the amount of beta amyloid aggregation using an endpoint assay based on filtration. In this assay, hexafluoroisopropanol (HFIP) is used to break down the initial amyloid peptide to a monomer state and use a concentration of 33 μM which is high enough so that aggregation will occur at pH 6.0 in several hours. Methods: […] Then, we incubate for 2 to 4 hours at room temperature. […] We wash the filter plate with 100 μL of the same phosphate buffer. Aggregation was detected on a Microbeta counter after impregnating the filters with Meltilex (1450-441) and is corrected for background.
# [4] = molecular target: T1, Aβ(1-40); test: BASST (Beta-Amyloid Self-Seeding, Thioflavin T), inhibitors of self-seeded amyloid fibril growth
# Protocol: as §1
# Assay Buffer—50 mM sodium phosphate, pH 7.5, 100 mM NaCl, 0.02% NaN3, 1 M urea (filter and store at 4° C.)
# as §2
# The following are the amounts of the components of the reaction mixture that result in each of the 50 assay wells:
# • 1) Prepare the reaction mix above by mixing the components and storing on ice. • 2) Pipet 14.5 μL of reaction mixture into each of 50 wells of a polystyrene U-bottom 96-well microtiter plate (Corning 25881-96) on ice. • 3) Add 1.7 μL of diluted compound to be tested to each well in a column of eight, including solvent control. Serial 3-fold dilutions from 1 mM (100 μM final) in assay buffer−urea=7 dilutions+zero. Each 96-well plate can therefore accommodate 11 samples+1 Congo Red control (0.039-5 μM final in 2-fold steps). • 4) Seal the plate with aluminum film and incubate for 10 minutes on ice. • 5) Raise the temperature to 37° C. and incubate for 3 to 5 hours (depends on the lot of the peptide). • 6) Remove the aluminum film and add 250 μL/well of 5 μM thioflavin T (ThT) [T-3516, Sigma-Aldrich] in 50 mM glycine-NaOH, pH 8.5. Read fluorescence on a plate reader (ex=440 nm/20 nm; em=485 nm/20 nm) within 5 minutes. BAPA (Beta-Amyloid Peptide Aggregation)
# [5] = 30 μM soluble Aβ(1-40) + 125I-labeled Aβ(1-40), 37° C., 3 to 5 hours, replicate values, letter = synthetic lot, ppt = precipitate, V-shaped = inhibition followed by precipitation
# [6] = 30 μM soluble Aβ(1-40), 37° C., 3 to 5 hours, thioflavin T fluorescence, replicate values, letter = synthetic lot, read-out: BASST (IC50 = μM)
Compound,IC50 [1] [µM],IC50 [2],IC50 [3],IC50 ([4]; read-out: BASST (IC50 = μM)) [µM],"IC50 [1, 5]","IC50 [4, 6]",IC50 ([4]; BASST (IC50 = μM)) [µM]
2-{4-[3-(3-Aminophenyl)propyl]phenylamino}benzoic acid [Example 23],20,> 100 µM,17 µM,2,–,–,–
"2-{4-[5-(3,4-Dichloro-phenyl)pentyl]phenylamino}methoxy-5-nitrobenzoic acid [Example 14]",–,10.9 µM,> 10 µM,–,18 µM and 8 µM and 6 µM and 7 µM,1 µM,–
"O=C(O)c1ccccc1Nc1ccc(CCc2ccc(Cl)c(Cl)c2)cc1 [Example 1, 2-{4-[2-(3,4-Dichlorophenyl)ethyl]phenylamino}-benzoic acid]",–,> 60 µM and 50 µM and 58.8 µM and 57.8 µM,> 60 µM and 11 µM and > 100 µM and 86 µM,–,> 100 µM (5×) and 52 µM and 10 µM,–,–
"O=C(O)c1ccccc1Nc1ccc(CCc2cc(O)c(O)c(O)c2)cc1 [Example 6, 2-{4-[2-(3,4,5-Trihydroxy-phenyl)-ethyl]phenylamino}benzoic acid]",–,21.5 µM,> 60 µM,–,15 µM and 21 µM and 20 µM and 40 µM,4 µM and 1 µM and 3 µM,–
COc1cc(Nc2ccc(CCCc3ccc(Cl)c(Cl)c3)cc2)c(C(=O)O)cc1[N+](=O)[O-] [Example 7],–,8.83 µM,39 µM,–,18 µM and 13 µM and 12 µM and 20 µM,2 µM,–
"O=C(O)c1ccccc1Nc1ccc(CCCCc2ccc(Cl)c(Cl)c2)cc1 [Example 10, 2-{4-[4-(3,4-Dichlorophenyl)butyl]phenylamino}benzoic acid]",–,75.7 µM,67 µM,–,70 µM and 50 µM,4 µM,–
"O=C(O)c1cc([N+](=O)[O-])ccc1Nc1ccc(CCCCc2ccc(Cl)c(Cl)c2)cc1 [Example 11, 2-{4-[4-(3,4-Dichloro-phenyl)-butyl]-phenylamino}-5-nitro-benzoic acid]",–,5.62 µM and 6.78 µM,23 µM and 9 µM,–,18 µM and 20 µM (2×) and > 100 µM (2×) and 21 µM and 30 µM,1 µM (3×) and 3 µM and 800 nM,–
"O=C(O)c1cc([N+](=O)[O-])cc([N+](=O)[O-])c1Nc1ccc(CCCCc2ccc(Cl)c(Cl)c2)cc1 [Example 12, 2-{4-[4-(3,4-Dichlorophenyl)butyl]phenylamino}-3,5-dinitrobenzoic acid]",–,3.93 µM,> 60 µM,–,20 µM,1 µM,–
O=C(O)c1ccccc1Nc1ccc(CCc2ccc(Cl)c(C(F)(F)F)c2)cc1 [Example 17],> 100,64.5 µM,> 60 µM and 41 µM,6.2,–,–,–
"CCN(CC)c1ccc(CCCc2ccc(Nc3ccccc3C(=O)O)cc2)cc1 [Example 19, 2-{4-[3-(4-Diethylaminophenyl)propyl]phenylamino}benzoic acid]",–,31 µM and 34 µM,> 60 µM and 43 µM,–,–,–,–
"Nc1ccc(CCCc2ccc(Nc3ccccc3C(=O)O)cc2)cc1 [Example 22, 2-{4-[3-(4-Aminophenyl)propyl]phenylamino}benzoic acid]",–,> 100 µM,24 µM,–,3 µM,9 µM,–
"CCN(CC)c1ccc(CCc2ccc(Nc3ccccc3C(=O)O)cc2)cc1 [Example 26, 2-{4-[2-(4-Diethylaminophenyl)ethyl]phenylamino}benzoic acid monohydrochloride monohydrate]",–,> 100 µM,57 µM,–,–,–,1
"Cc1ccc(CCc2ccc(Nc3ccc([N+](=O)[O-])cc3C(=O)O)cc2)cc1C [Example 61, 2-{4-[2-(3,4-Dimethyl-phenyl)-ethyl]-phenylamino}-5-nitro-benzoic acid]",–,12 µM,13 µM,–,–,–,–
"O=C(O)c1ccccc1Nc1ccc(CCc2ccc(Cl)c(Cl)c2)cc1 [Example 118, 2-{4-[2-(3,4-Dichloro-phenyl)-ethyl]-phenylamino}-benzoic acid monopotassium]",–,–,> 60 µM,–,> 100 µM,6 µM,–
"O=C(O)c1ccccc1Nc1ccc(CCc2ccc(Cl)c(Cl)c2)cc1 [Example 119, 2-{4-[2-(3,4-Dichloro-phenyl)-ethyl]-phenylamino}-benzoic acid calcium salt (1:1)]",–,–,> 60 µM,3,> 100 µM,–,–

# From patent US6972287B1, “Method of inhibiting amyloid protein aggregation and imaging amyloid deposits” (Pfizer Inc., priority 1999, dated 2005)
